Results on 16 molecules are retold here after PubChem BioAssay AID330 (DTP/NCI, 2004).

The test has as its system P388 leukemia ip, CD2F1 mice, survival T/C. Description: NCI In Vivo Anticancer Drug Screen. Data for tumor model P388 Leukemia (intraperitoneal) in CD2F1 (CDF1) mice. The note with it: endpoint: median survival time, higher = longer survival. Summed up: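 Mice carrying the transplanted tumor received test compound or vehicle. Survival was recorded in each group, and the value is the treated-group measurement divided by that of the vehicle-treated control group.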

Setting [1] is: dose: 60.0 mg/kg/injection, schedule: Q01DX005 (ip), vehicle: saline with Tween-80.
Where [2] appears, read: dose: 120.0 mg/kg/injection, schedule: Q01DX005 (ip), vehicle: saline with Tween-80.
Setting [3] is: dose: 240.0 mg/kg/injection, schedule: Q01DX005 (ip), vehicle: saline with Tween-80.
Where [4] appears, read: dose: 50.0 mg/kg/injection, schedule: Q01DX009 (ip), vehicle: saline with Tween-80.
Setting [5] is: dose: 100.0 mg/kg/injection, schedule: Q01DX009 (ip), vehicle: saline with Tween-80.
Setting [6] is: dose: 50.0 mg/kg/injection, schedule: Q01DX005 (ip), vehicle: Klucel (hydroxypropylcellulose) (HPC).
Where [7] appears, read: dose: 100.0 mg/kg/injection, schedule: Q01DX005 (ip), vehicle: Klucel (hydroxypropylcellulose) (HPC).
The mark [8] stands for this setting: dose: 200.0 mg/kg/injection, schedule: Q01DX005 (ip), vehicle: Klucel (hydroxypropylcellulose) (HPC).
[9] abbreviates: dose: 50.0 mg/kg/injection, schedule: Q01DX005 (ip), vehicle: saline with Tween-80.
The mark [10] stands for this setting: dose: 100.0 mg/kg/injection, schedule: Q01DX005 (ip), vehicle: saline with Tween-80.
[11] abbreviates: dose: 200.0 mg/kg/injection, schedule: Q01DX005 (ip), vehicle: saline with Tween-80.

Values joined by “and” are separate entries in the source; they are usually repeats but may differ in a detail not shown here. Equal values may be shown once. Toxic doses and inconclusive results are not listed. Peptide text beside a SMILES is read from it.

On to `O=c1[nH]cnc2cccc(Cl)c12`, for which the T/C under setting [1] was 90 % of control, the T/C under setting [2] is 90 % of control and the T/C under setting [3] is 100 % of control.

For the molecule `NC(=O)c1nnn2c1nc(N)c1ccccc12`, the T/C under setting [4] is 90 % of control; the T/C under setting [5] was 89 % of control; the T/C (dose: 200.0 mg/kg/injection, schedule: Q01DX009 (ip), vehicle: saline with Tween-80) is 91 % of control.

On to `COc1ccc(-c2coc3cc(OC4OC(COC5OC(CO)C(O)C(O)C5O)C(O)C(O)C4O)cc(O)c3c2=O)cc1` (stereo not given), for which the T/C runs as follows: (dose: 25.0 mg/kg/injection, schedule: Q01DX009 (ip), vehicle: saline with Tween-80) 101 % of control; under setting [4], 98 % of control; under setting [5], 93 % of control.

As for `COc1ccc(/C=C2\C(=O)C(c3ccccc3)N(c3ccccc3)C2=O)cc1` (stereo not given), the T/C (dose: 12.5 mg/kg/injection, schedule: Q04DX002 (ip), vehicle: saline with Tween-80) is 91 % of control; the T/C (dose: 25.0 mg/kg/injection, schedule: Q04DX002 (ip), vehicle: saline with Tween-80) is 92 % of control; the T/C (dose: 50.0 mg/kg/injection, schedule: Q04DX002 (ip), vehicle: saline with Tween-80) was 98 % of control.

Turning to `CCn1c2ccccc2c2c3ncc4cccn4c3ccc21`, the T/C reads like this: under setting [1], 94 % of control; under setting [2], 98 % of control; under setting [3], 106 % of control.

For the molecule `O=NNc1ncnc2c1ncn2Cc1ccccc1`, the T/C is, setting by setting: (dose: 3.12 mg/kg/injection, schedule: Q01DX009 (ip), vehicle: water) 103 % of control; (dose: 6.25 mg/kg/injection, schedule: Q01DX009 (ip), vehicle: water) 100 % of control; (dose: 12.5 mg/kg/injection, schedule: Q01DX009 (ip), vehicle: water) 112 % of control; (dose: 25.0 mg/kg/injection, schedule: Q01DX009 (ip), vehicle: water) 112 % of control; (dose: 50.0 mg/kg/injection, schedule: Q01DX009 (ip), vehicle: water) 112 % of control.

`CCN(CC)C(=Nc1ccc(NC(=O)c2ccc(C(=O)Nc3ccc(N=C(c4ccccc4)N(CC)CC)cc3)cc2)cc1)c1ccccc1`: the T/C runs as follows: under setting [6], 96 % of control; under setting [7], 97 % of control; under setting [8], 96 % of control.

For the molecule `O=NN(CCCl)C(=O)NC1[C@H](O)CCC[C@@H]1O` (stereo not given in full), the T/C reads like this: (dose: 0.63 mg/kg/injection, schedule: Q01DX005 (ip), vehicle: saline) 118 % of control; (dose: 2.5 mg/kg/injection, schedule: Q01DX005 (ip), vehicle: saline) 159 % of control; (dose: 5.0 mg/kg/injection, schedule: Q01DX005 (ip), vehicle: saline) 190 % of control and 267 % of control; (dose: 10.0 mg/kg/injection, schedule: Q01DX005 (ip), vehicle: saline) 116 % of control and 206 % of control.

Turning to `CCn1ncc2c(=O)c(C(=O)c3ccccc3)c[nH]c21`, the T/C reads like this: under setting [9], 99 % of control; under setting [10], 97 % of control; under setting [11], 104 % of control.

Turning to `Nc1ccc(S(=O)(=O)F)cc1Cl`, the T/C is 100 % of control (dose: 50.0 mg/kg/injection, schedule: Q01DX009 (ip), vehicle: saline); 97 % of control (dose: 100.0 mg/kg/injection, schedule: Q01DX009 (ip), vehicle: saline); 111 % of control (dose: 200.0 mg/kg/injection, schedule: Q01DX009 (ip), vehicle: saline).

`Cc1nn(C(=O)c2ccncc2)c(C)c1N=Nc1cccc(Cl)c1`: the T/C by setting is: (dose: 50.0 mg/kg/injection, schedule: Q01DX009 (ip), vehicle: Klucel (hydroxypropylcellulose) (HPC)) 99 % of control; (dose: 100.0 mg/kg/injection, schedule: Q01DX009 (ip), vehicle: Klucel (hydroxypropylcellulose) (HPC)) 100 % of control; (dose: 200.0 mg/kg/injection, schedule: Q01DX009 (ip), vehicle: Klucel (hydroxypropylcellulose) (HPC)) 98 % of control.

With `NC(Cc1ccccc1)C(=O)NC(CCC(=O)O)C(=O)NC(CCC(=O)O)C(=O)O` (stereo not drawn) (H-Phe-Glu-Glu-OH; configuration not given here), the T/C under setting [6] was 103 % of control, the T/C under setting [7] was 100 % of control and the T/C under setting [8] is 96 % of control.

Consider `COC(=O)CCC(NC(=O)C(CCCCN)N(C(=O)OCc1ccccc1)C(=O)OCc1ccccc1)C(=O)OC` (stereo not given), for which the T/C under setting [9] is 101 % of control, the T/C under setting [10] is 101 % of control and the T/C under setting [11] was 98 % of control.

For the molecule `COc1ccc(C2CC(C)(OC)Oc3cc4c(cc32)OCO4)cc1` (stereo not given), the T/C is, setting by setting: (dose: 100.0 mg/kg/injection, schedule: Q01DX001 (ip), vehicle: Klucel (hydroxypropylcellulose) (HPC)) 100 % of control; (dose: 200.0 mg/kg/injection, schedule: Q01DX001 (ip), vehicle: Klucel (hydroxypropylcellulose) (HPC)) 94 % of control.

Take `CC1=CC(=O)N2CCN=C2S1`: the T/C is, setting by setting: (dose: 25.0 mg/kg/injection, schedule: Q04DX003 (ip), vehicle: Klucel (hydroxypropylcellulose) (HPC)) 101 % of control; (dose: 50.0 mg/kg/injection, schedule: Q04DX003 (ip), vehicle: Klucel (hydroxypropylcellulose) (HPC)) 101 % of control; (dose: 100.0 mg/kg/injection, schedule: Q04DX003 (ip), vehicle: Klucel (hydroxypropylcellulose) (HPC)) 111 % of control and 98 % of control; (dose: 200.0 mg/kg/injection, schedule: Q04DX003 (ip), vehicle: Klucel (hydroxypropylcellulose) (HPC)) 111 % of control.

As to `C/C=C1/CNC2Cc3c([nH]c4ccccc34)C(c3ccc4c5c([nH]c4c3)C3CC4CC(CC)C3N(CC5)C4)CC1C2C(=O)OC` (stereo not given), the T/C was 106 % of control (dose: 2.5 mg/kg/injection, schedule: Q01DX009 (ip), vehicle: saline) and 100 % of control (dose: 5.0 mg/kg/injection, schedule: Q01DX009 (ip), vehicle: saline).
